In patent publication US20060166182A1, “Tissue and organ preservation, protection and resuscitation” (The Board of Trustees of the University of Ilinois a body …, priority 2002, published 2006):

System: dogs
Assay: Myocardial tissue oxygen pressure and pH during cardiac (ventricular) fibrillation in bupivacaine and sham treated dogs
Assay type: in vivo, dog
Procedure: Non-purpose bred male hounds (22-26 kg) were used. Dogs were fasted overnight. On the day of the example, the dog was anesthetized with 5 mg/kg propofol, intubated and ventilated with 1.5% isoflurane and inspired oxygen concentration of 30%. Catheters were inserted into the femoral artery for blood pressure recording and blood gas sampling, and the femoral vein for fluid and drug administration. Sterile saline was infused intravenously (4 ml·kg^−1·hr^−1) for fluid maintenance.
An incision was made along the left 5th intercostal space and the left ventricle exposed. A Paratrend tissue probe (Codman Inc, Newark, N.J.) was calibrated on the day of the study using precision gases. The probe was 0.5 mm in diameter and 2 sensors measuring myocardial tissue oxygen pressure (PmO2) and myocardial pH (pHm) were contained in the final 2 cm. The void surrounding the pHm sensor was filled with acrylamide gel containing phenol red. Changes in hydrogen ion concentration produce color changes in phenol red, which can be detected by the pH fiber optic sensor. A fluorescence method was used to measure the partial pressure of dissolved or gaseous oxygen for the fiber optic PmO2 sensor. The 0%-90% response times for the PmO2 and pHm sensors were 78 s and 70 s, respectively. The probe was inserted into the myocardium in the region between the first and second diagonal branch of the left anterior descending coronary artery, parallel to the surface of the heart 6 mm below the surface using an 18 gauge angiocatheter as an introducer. Mechanical ventilation was adjusted to maintain arterial pCO2 at 35±2 mmHg and inspired oxygen concentration was maintained at 30%, with the balance nitrogen. Body temperature was maintained at 38° C. using a warming pad.
After equilibration of the myocardial tissue probe for 45 minutes, baseline measures of mean arterial pressure (MAP), heart rate, pmO2 and pHm were recorded and an arterial blood gas sample was measured. Each dog received an intravenous infusion of 10 mg/kg bupivacaine over 10 seconds. […] In a preliminary study (early lipid, EL), intervention at the onset of circulatory collapse included an intravenous infusion of either soy lipid emulsion (Intralipid 20%, Fresenius Kabi Clayton, Clayton, N.C.) n=3, or saline, n=3, each administered as a 4 ml/kg bolus (over 2 minutes), followed by a continuous infusion of 0.5 ml·kg^−1·min^−1 for 10 minutes. The protocol was subsequently modified to better simulate a clinical setting, where the start of the infusion might be delayed by several minutes. In this protocol (delayed lipid, DL), internal cardiac massage alone was continued for 10 minutes, then infusion of either the lipid emulsion (n=6) or saline (n=6) was begun as described above. If sinus rhythm returned, internal cardiac massage was continued until MAP reached 30 mmHg and recovery measures of pmO2 and pHm were recorded when blood pressure returned to within 10% of baseline levels. Dogs were killed at the end of the study using a euthanasia solution. The investigators were not blinded to treatment arm.
Data are reported for the DL experiments as mean±SD. pmO2 and pHm were compared between baseline and subsequent treatments within each group using repeated measures analysis of variance with Tukey's tests for post-hoc comparisons. Differences between groups for each treatment were compared by Student's t-test. The proportion of animals surviving bupivacaine challenge in each group was compared in the DL experiment using a z-test. Significance was taken as p<0.05.
There were no significant differences between groups. […] Tissue pH decreased a similar amount in half the time in sham treated dogs, and the rate of pH decrease was greater in these dogs compared to bupivacaine treated dogs.
In four dogs per group, PmO2 and pHm were allowed to decrease for 15 minutes of cardiac fibrillation at the end of the study.

[1] = dogs made hypotensive by treatment with bupivacaine
[2] = during cardiac fibrillation, mean ± SD
[3] = during cardiac fibrillation, mean ± SD, P < 0.05 compared to sham

`CCCCN1CCCCC1C(=O)Nc1c(C)cccc1C` (stereo not drawn) [Bupivacaine, bupivacaine] was tested, and the “rate of decrease in pHm, increase in PmCO2 and decrease in PmO2 compared to sham” value (15 minutes of cardiac fibrillation at the end of the study, four dogs per group, FIG. 1) was “rate of decrease in pHm and increase in PmCO2 was faster in sham treated dogs, but the rate of decrease in PmO2 was slower compared to bupivacaine treated dogs”, the “acidosis in myocardial tissue” value (dogs made hypotensive by bupivacaine, prolonged hypotension, hypoperfusion and cardiac tissue hypoxia) was “do not develop the expected acidosis in myocardial tissue” and the “cardiac tissue pO2 (intramyocardial probe)” value [1] was “undetectable”. For the same compound, the “systemic blood pressure (BP) after bupivacaine” value [1] was less than 40 mmHg, the “PH decrease (myocardial tissue)” value [2] was 0.31 ± 0.08 and the PmO2 decrease [2] was 52 ± 16 mmHg. The “Rate of decrease (PmO2)” value [2] was 22 ± 5 mmHg/min, the “Time (of PmO2 decrease)” value [2] was 2.5 ± 0.9 min and the “Rate of Decrease (myocardial pH)” value [3] was 0.02 ± 0.01 min − 1. The “Time (of pH decrease)” value [3] was 13.8 ± 5.1 min, the “rate of decrease in PmO2 compared to sham treated dogs” value (ventricular fibrillation, Table 2 experiment) was “higher rate in bupivacaine treated compared to sham treated dogs, but this difference was not significant” and the “factor by which the rate of decrease in pH during fibrillation was reduced” value (ventricular fibrillation, versus sham) was “four”.
